Source: patent publication US20240245673A1, “Papain-like protease (PLpro) inhibitors” (Pfizer Inc., priority 2022, published 2024)

Target: SARS-CoV-2 Papain like protease (PLpro) (Severe acute respiratory syndrome coronavirus 2 (2019-nCoV) (SARS-CoV-2), UniProt P0DTD1)
Assay: Papain Like Protease (PLpro) biochemical assay with profluorogenic substrate Z-RLRGG-AMC
Details: SARS-CoV-2 PLpro 6.25 nM, 25 μM Z-RLRGG-AMC substrate, 60 minute reaction; read-out: IC50

Row | Structure (SMILES) | IC50
1 | Cc1cc(-c2cc(C(C)NC(=O)c3ccccc3C)c3ccccc3n2)c[nH]1 (centres unmarked) [Example 117, 2-methyl-N-{1-[2-(5-methyl-1H-pyrrol-3-yl)quinolin-4-yl]ethyl}benzamide] | 412 nM
2 | Cc1ccccc1C(=O)NC(C)c1cc(-c2ccc3ncnn3c2)nc2ccccc12 (centres unmarked) [Example 118, 2-methyl-N-{1-[2-([1,2,4]triazolo[1,5-a]pyridin-6-yl)quinolin-4-yl]ethyl}benzamide] | 1320 nM
3 | Cc1ccccc1C(=O)NC(C)c1cc(-c2ccsc2)nc2ccccc12 (centres unmarked) [Example 119, 2-methyl-N-{1-[2-(thiophen-3-yl)quinolin-4-yl]ethyl} benzamide] | 244 nM
4 | Cc1ccccc1C(=O)NC(C)c1cc(-c2cnn(CC(F)F)c2)nc2ccccc12 (centres unmarked) [Example 120, N-(1-{2-[1-(2,2-difluoroethyl)-1H-pyrazol-4-yl]quinolin-4-yl}ethyl)-2-methylbenzamide] | 345 nM
5 | COCCn1nc(C)c(-c2cc(C(C)NC(=O)c3ccccc3C)c3ccccc3n2)c1C (centres unmarked) [Example 121, N-(1-{2-[1-(2-methoxyethyl)-3,5-dimethyl-1H-pyrazol-4-yl]quinolin-4-yl}ethyl)-2-methylbenzamide] | 1420 nM
6 | Cc1ccccc1C(=O)NC(C)c1cc(-c2ccc(NS(C)(=O)=O)cc2)nc2ccccc12 (centres unmarked) [Example 122, N-[1-(2-{4-[(methanesulfonyl)amino]phenyl}quinolin-4-yl)ethyl]-2-methylbenzamide] | 201 nM
7 | Cc1ccccc1C(=O)NC(C)c1cc(-c2cnn(CC3(C#N)CC3)c2)nc2ccccc12 (centres unmarked) [Example 123, N-[1-(2-{1-[(1-cyanocyclopropyl)methyl]-1H-pyrazol-4-yl}quinolin-4-yl)ethyl]-2-methylbenzamide] | 329 nM
8 | Cc1ccccc1C(=O)NC(C)c1cc(-c2cc(C(C)C)no2)nc2ccccc12 (centres unmarked) [Example 124, 2-methyl-N-(1-{2-[3-(propan-2-yl)-1,2-oxazol-5-yl]quinolin-4-yl}ethyl)benzamide] | 635 nM
9 | Cc1ccccc1C(=O)NC(C)c1cc(-c2cnn(CCN3CCOCC3)c2)nc2ccccc12 (centres unmarked) [Example 125, 2-methyl-N-[1-(2-{1-[2-(morpholin-4-yl)ethyl]-1H-pyrazol-4-yl}quinolin-4-yl)ethyl]benzamide] | 294 nM
10 | Cc1ccccc1C(=O)NC(C)c1cc(-c2cn(C)nc2C)nc2ccccc12 (centres unmarked) [Example 126, N-{1-[2-(1,3-dimethyl-1H-pyrazol-4-yl)quinolin-4-yl]ethyl}-2-methylbenzamide] | 845 nM
11 | Cc1ccccc1C(=O)NC(C)c1cc(-c2ccc(N)nc2)nc2ccccc12 (centres unmarked) [Example 127, N-{1-[2-(6-aminopyridin-3-yl)quinolin-4-yl]ethyl}-2-methylbenzamide] | 1820 nM
12 | COC(=O)c1c[nH]c(-c2cc(C(C)NC(=O)c3ccccc3C)c3ccccc3n2)c1 (centres unmarked) [Example 128, methyl 5-{4-[1-(2-methylbenzamido)ethyl]quinolin-2-yl}-1H-pyrrole-3-carboxylate] | 164 nM
13 | Cc1ccccc1C(=O)NC(C)c1cc(-c2cnn(C)c2C)nc2ccccc12 (centres unmarked) [Example 129, N-{1-[2-(1,5-dimethyl-1H-pyrazol-4-yl)quinolin-4-yl]ethyl}-2-methylbenzamide] | 666 nM
14 | Cc1ccccc1C(=O)NC(C)c1cc(-c2cncnc2)nc2ccccc12 (centres unmarked) [Example 130, 2-methyl-N-{1-[2-(pyrimidin-5-yl)quinolin-4-yl]ethyl} benzamide] | 3100 nM
15 | Cc1ccccc1C(=O)NC(C)c1cc(-c2cnn3cccnc23)nc2ccccc12 (centres unmarked) [Example 131, 2-methyl-N-{1-[2-(pyrazolo [1,5-a]pyrimidin-3-yl)quinolin-4-yl]ethyl}benzamide] | 2910 nM
16 | Cc1ccccc1C(=O)NC(C)c1cc(-c2cn(C)nc2C(F)(F)F)nc2ccccc12 (centres unmarked) [Example 132, 2-methyl-N-(1-{2-[1-methyl-3-(trifluoromethyl)-1H-pyrazol-4-yl]quinolin-4-yl}ethyl) benzamide] | 844 nM
17 | COC(=O)c1ccc(-c2cc(C(C)NC(=O)c3ccccc3C)c3ccccc3n2)o1 (centres unmarked) [Example 133, methyl 5-{4-[1-(2-methylbenzamido)ethyl]quinolin-2-yl}furan-2-carboxylate] | 392 nM
18 | Cc1ccccc1C(=O)NC(C)c1cc(-c2ccc3c(c2)nnn3C)nc2ccccc12 (centres unmarked) [Example 134] | 432 nM
19 | Cc1ccccc1C(=O)NC(C)c1cc(-c2cnn(C)n2)nc2ccccc12 (centres unmarked) [Example 135, 2-methyl-N-{1-[2-(2-methyl-2H-1,2,3-triazol-4-yl)quinolin-4-yl]ethyl}benzamide] | 855 nM
20 | Cc1ccccc1C(=O)NC(C)c1cc(-c2cn(C(C)C)nc2C)nc2ccccc12 (centres unmarked) [Example 136, 2-methyl-N-(1-{2-[3-methyl-1-(propan-2-yl)-1H-pyrazol-4-yl]quinolin-4-yl}ethyl) benzamide] | 1410 nM
21 | Cc1ccccc1C(=O)NC(C)c1cc(-c2cncc(F)c2)nc2ccccc12 (centres unmarked) [Example 137, N-{1-[2-(5-fluoropyridin-3-yl)quinolin-4-yl]ethyl}-2-methylbenzamide] | 1130 nM
22 | Cc1ccccc1C(=O)NC(C)c1cc(NCc2cocn2)nc2ccccc12 (centres unmarked) [Example 138, 2-methyl-N-[1-(2-{[(1,3-oxazol-4-yl)methyl]amino}-quinolin-4-yl)ethyl]benzamide] | 944 nM

Row | Structure (SMILES) | IC50
23 | Cc1ccccc1C(=O)NC(C)c1cc(NCc2cnco2)nc2ccccc12 (centres unmarked) [Example 139, 2-methyl-N-[1-(2-{[(1,3-oxazol-5-yl)methyl]amino}-quinolin-4-yl)ethyl]benzamide] | 675 nM
24 | Cc1ccccc1C(=O)NC(C)c1cc(NCC2CCCOC2)nc2ccccc12 (centres unmarked) [Example 140, 2-methyl-N-[1-(2-{[(oxan-3-yl)methyl]amino}quinolin-4-yl)ethyl]benzamide] | 1960 nM
25 | Cc1ccccc1C(=O)NC(C)c1cc(NCC2CCOCC2)nc2ccccc12 (centres unmarked) [Example 141, 2-methyl-N-[1-(2-{[(oxan-4-yl)methyl]amino}quinolin-4-yl)ethyl]benzamide] | 778 nM
26 | Cc1ccccc1C(=O)NC(C)c1cc(NC2CCOC2)nc2ccccc12 (centres unmarked) [Example 142, 2-methyl-N-(1-{2-[(oxolan-3-yl)amino]quinolin-4-yl}ethyl)benzamide] | 900 nM
27 | Cc1ccccc1C(=O)NC(C)c1cc(N(C)CCC(=O)N(C)C)nc2ccccc12 (centres unmarked) [Example 143, N-[1-(2-{[3-(dimethylamino)-3-oxopropyl](methyl)amino}-quinolin-4-yl)ethyl]-2-methylbenzamide] | 8480 nM
28 | Cc1ccccc1C(=O)NC(C)c1cc(NCC2CCS(=O)(=O)CC2)nc2ccccc12 (centres unmarked) [Example 144, N-(1-(2-(((1,1-dioxidotetrahydro-2H-thiopyran-4-yl)methyl)-amino)quinolin-4-yl)ethyl)-2-methylbenzamide] | 1110 nM
29 | Cc1ccccc1C(=O)NC(C)c1cc(NC2(C#N)CC2)nc2ccccc12 (centres unmarked) [Example 145, N-(1-{2-[(1-cyanocyclopropyl)amino]quinolin-4-yl}ethyl)-2-methylbenzamide] | 2520 nM
30 | Cc1ccccc1C(=O)NC(C)c1cc(NCC(=O)N2CCOCC2)nc2ccccc12 (centres unmarked) [Example 146, 2-methyl-N-[1-(2-{[2-(morpholin-4-yl)-2-oxoethyl]amino}-quinolin-4-yl)ethyl]benzamide] | 4500 nM
31 | Cc1ccccc1C(=O)NC(C)c1cc(NC2CCCOC2)nc2ccccc12 (centres unmarked) [Example 147] | 909 nM
32 | Cc1ccccc1C(=O)NC(C)c1cc(NCCS(=O)(=O)N(C)C)nc2ccccc12 (centres unmarked) [Example 148, N-[1-(2-{[2-(dimethylsulfamoyl)ethyl]amino}quinolin-4-yl)ethyl]-2-methylbenzamide] | 1770 nM
33 | CCN(CCOC)c1cc(C(C)NC(=O)c2ccccc2C)c2ccccc2n1 (centres unmarked) [Example 149, N-(1-{2-[ethyl(2-methoxyethyl)amino]quinolin-4-yl}ethyl)-2-methylbenzamide] | 2170 nM
34 | Cc1ccccc1C(=O)NC(C)c1cc(NCC2CCN(S(C)(=O)=O)CC2)nc2ccccc12 (centres unmarked) [Example 150] | 1070 nM
35 | Cc1ccccc1C(=O)NC(C)c1cc(N2CCC(S(=O)(=O)N(C)C)CC2)nc2ccccc12 (centres unmarked) [Example 151, N-(1-{2-[4-(dimethylsulfamoyl)piperidin-1-yl]quinolin-4-yl}ethyl)-2-methylbenzamide] | 1460 nM
36 | Cc1cc(CC(=O)O)ccc1C(=O)N[C@H](C)c1cc(-c2cnn(C)c2)nc2ccccc12 [Example 200, (R)-2-(3-methyl-4-((1-(2-(1-methyl-1H-pyrazol-4-yl)quinolin-4-yl)ethyl)carbamoyl)phenyl)acetic acid] | 792 nM
37 | Cc1cc(C(=O)NCc2cscn2)ccc1C(=O)N[C@H](C)c1cc(-c2cnn(C)c2)nc2ccccc12 [Example 201, (R)-2-methyl-N1-(1-(2-(1-methyl-1H-pyrazol-4-yl)quinolin-4-yl)ethyl)-N4-(thiazol-4-ylmethyl)terephthalamide] | 3 nM
38 | Cc1cc(C(=O)NC(C)c2cscn2)ccc1C(=O)N[C@H](C)c1cc(-c2cnn(C)c2)nc2ccccc12 (some centres unmarked) [Example 202] | 12 nM
39 | Cc1cc(C(=O)NCc2ncsc2C)ccc1C(=O)N[C@H](C)c1cc(-c2cnn(C)c2)nc2ccccc12 [Example 203] | 2 nM
40 | Cc1nc(CNC(=O)c2ccc(C(=O)N[C@H](C)c3cc(-c4cnn(C)c4)nc4ccccc34)c(C)c2)cs1 [Example 204] | 73 nM
41 | COc1c(-c2cnn(C)c2)cc(C(C)NC(=O)c2cc(CN)ccc2C)c2ccccc12 (centres unmarked) [Example 205] | 43 nM
42 | Cc1cc(CNCc2cscn2)ccc1C(=O)NC1(c2cc(-c3cnn(C)c3)nc3ccccc23)CC1 [Example 210] | 6 nM
43 | Cc1cc(C2(NC(=O)c3cscn3)CC2)ccc1C(=O)N[C@H](C)c1cc(-c2cnn(C)c2)nc2ccccc12 [Example 212, (R)-N-(1-(3-methyl-4-((1-(2-(1-methyl-1H-pyrazol-4-yl)quinolin-4-yl)ethyl)carbamoyl)phenyl)cyclopropyl)thiazole-4-carboxamide] | 58 nM
44 | Cc1cc(C2(NC(=O)c3ncc[nH]3)CC2)ccc1C(=O)N[C@H](C)c1cc(-c2cnn(C)c2)nc2ccccc12 [Example 213, (R)-N-(1-(3-methyl-4-((1-(2-(1-methyl-1H-pyrazol-4-yl)quinolin-4-yl)ethyl)carbamoyl)phenyl)cyclopropyl)-1H-imidazole-2-carboxamide] | 219 nM
